The source of these data is ChEMBL document CHEMBL3351453 (2014).

For assay [1], the system named is A549. The assay can be described thus: Cytotoxicity against human A549 cells assessed as cell viability at >40 uM after 24 hrs by MTT assay relative to gefitinib. The format is functional. (Tetrazolium dyes change colour on reduction, which living cells bring about.)
A further assay deals with RKO. As to conditions: Homo sapiens, at 20 to 80 µM.
Another assay concerns BFTC-905. The following applies: Homo sapiens, at 20 to 80 µM.
Assay [2] relates to A549. As to the kind of experiment: Cytotoxicity against human A549 cells assessed as cell viability at 10 uM after 24 hrs by MTT assay (reference value: 100%). The format is functional. The following applies: A549, 24 h, read-out: Activity.
For assay [3], the system named is A549. As to the kind of experiment: Cytotoxicity against human A549 cells assessed as cell viability at 20 uM after 24 hrs by MTT assay (reference value: 100%). The format is functional. As to conditions: A549, 24 h, read-out: Activity.
Assay [4] concerns A549. As to the kind of experiment: Cytotoxicity against human A549 cells assessed as cell viability at 40 uM after 24 hrs by MTT assay (reference value: 100%). Format: functional. As to conditions: A549, 24 h, read-out: Activity.
Assay [5] deals with A549. The assay can be described thus: Cytotoxicity against human A549 cells assessed as cell viability at 60 uM after 24 hrs by MTT assay (reference value: 100%). Format: functional. As to conditions: A549, 24 h, read-out: Activity.
The test system of assay [6] is A549. As to the kind of experiment: Cytotoxicity against human A549 cells assessed as cell viability at 80 uM after 24 hrs by MTT assay (reference value: 100%). The following applies: A549, 24 h, read-out: Activity. Format: functional.

Active and inactive are the calls of the source. The rule behind the calls is not given here.

Description for BFTC-905: Cytotoxicity against human BFTC905 cells assessed as reduction in cell viability at 20 to 80 uM after 24 hrs by MTT assay
Description for RKO: Cytotoxicity against human RKO cells assessed as reduction in cell viability at 20 to 80 uM after 24 hrs by MTT assay

`CCCCCCCCCCOC(=O)CCC(=O)N1CCN(CCCOc2cc3c(Nc4ccc(F)c(Cl)c4)ncnc3cc2OC)CC1`: the Ratio in the assay on A549 [1] is given as 15.
Turning to `COC(=O)CCC(=O)N1CCN(CCCOc2cc3c(Nc4ccc(F)c(Cl)c4)ncnc3cc2OC)CC1`, the inhibition entry with RKO and with BFTC-905 was “Active” in each case.
Turning to `CCCCCCCCCCCOC(=O)CCC(=O)N1CCN(CCCOc2cc3c(Nc4ccc(F)c(Cl)c4)ncnc3cc2OC)CC1`, the Ratio in the assay with A549 [1] stood at 15.
With `COc1cc2ncnc(Nc3ccc(F)c(Cl)c3)c2cc1OCCCN1CCN(C(=O)CCC(=O)O)CC1`, the inhibition result in the assay with RKO and in the assay with BFTC-905 was “Active” each time.
With `CCCCCCCCCCCCOC(=O)CCC(=O)N1CCN(CCCOc2cc3c(Nc4ccc(F)c(Cl)c4)ncnc3cc2OC)CC1`, the Ratio in the assay with A549 [1] came to 15.
On to `COc1cc2ncnc(Nc3ccc(F)c(Cl)c3)c2cc1OCCCN1CCOC(=O)C1`, for which the viability at 10 µM in the assay with A549 [2] came out at 96.1%. Besides, in the assay with A549 [3], the viability at 20 µM worked out at 93.1%. In addition, the viability at 40 µM with A549 [4] worked out at 91%. The viability at 60 µM in the assay with A549 [5] was found to be 94.1%. The viability at 80 µM with A549 [6] stood at 94.9%.
